Legend:
Format in all cases: in vivo
[1] = test system: velvetleaf (Abutilon theophrasti); experiment: Test B pre-/postemergence plant response
In short: (§1)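 Visual ratings on a 0–100 scale (100 = complete control) were made versus untreated controls 13–15 days after treatment in a greenhouse. Compounds in surfactant-containing non-phytotoxic solvent were applied preemergence to seeds in loam–sand blend or postemergence to 1- to 4-leaf plants (2–18 cm).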

[2] = test system: Italian ryegrass (Lolium multiflorum); experiment: Test B pre-/postemergence plant response
In short: as §1

[3] = test system: goosegrass (Eleusine indica); experiment: Test B pre-/postemergence plant response
In short: as §1

[4] = test system: large crabgrass (Digitaria sanguinalis); experiment: Test B pre-/postemergence plant response
In short: as §1

[5] = test system: yellow nutsedge (Cyperus esculentus); experiment: Test B pre-/postemergence plant response
In short: as §1

[6] = test system: downy bromegrass (Bromus tectorum); experiment: Test B pre-/postemergence plant response
In short: as §1

[7] = test system: blackgrass (Alopecurus myosuroides); experiment: Test B pre-/postemergence plant response
In short: as §1

[8] = test system: morningglory (Ipomoea coccinea); experiment: Test B pre-/postemergence plant response
In short: as §1

[9] = test system: wheat (Triticum aestivum); experiment: Test B pre-/postemergence plant response
In short: as §1

[10] = test system: Surinam grass (Brachiaria decumbens); experiment: Test B pre-/postemergence plant response
In short: as §1

[11] = test system: woolly cupgrass (Eriochloa villosa); experiment: Test B pre-/postemergence plant response
In short: as §1

[12] = test system: pigweed (Amaranthus retroflexus); experiment: Test A pre-/postemergence plant response
In short: (§2)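 Each species was treated preemergence via directed soil spray and postemergence at the one- to two-leaf stage, with compounds formulated in a non-phytotoxic solvent plus surfactant. Visual injury relative to untreated controls was rated after about ten days on a 0–100 scale.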

[13] = test system: barnyardgrass (Echinochloa crus-galli); experiment: Test A pre-/postemergence plant response
In short: as §2

[14] = 31 g ai/ha, postemergence, scale 0 to 100, 0 is no effect, 100 is complete control
[15] = 62 g ai/ha, postemergence, 0 is no effect, 100 is complete control, 13 to 15 days
[16] = Postemergence, 125 g ai/ha, visual rating after 13 to 15 days, scale 0 (no effect) to 100 (complete control)
[17] = Postemergence, 250 g ai/ha, scale 0 to 100 (0 no effect, 100 complete control)
[18] = Preemergence, 31 g ai/ha, scale 0 to 100 (0 no effect, 100 complete control)
[19] = Preemergence, 62 g ai/ha, scale 0 to 100, 0 no effect, 100 complete control
[20] = Preemergence, 125 g ai/ha, scale 0 to 100, 0 no effect, 100 complete control
[21] = Preemergence, 250 g ai/ha, 0 to 100 scale
[22] = Postemergence, 125 g ai/ha, 0 to 100 scale where 0 is no effect and 100 is complete control
[23] = Postemergence, 500 g ai/ha, 0 to 100 scale, 0 = no effect, 100 = complete control, approx. ten days
[24] = Preemergence, 125 g ai/ha, 0 to 100 scale, 0 = no effect, 100 = complete control
[25] = Preemergence, 500 g ai/ha, visual injury, 0 to 100 scale (0 no effect, 100 complete control), approx. ten days

## CCCCn1c(CCC)ncc(C(=O)C2=C(O)CCCC2=O)c1=O [Compound 75]
[1]; [14]
  Plant response rating, Velvetleaf: 100
[1]; [15]
  Velvetleaf plant response rating (0 to 100 scale): 100
[1]; [16]
  Plant response rating, Velvetleaf: 100
[1]; [17]
  Plant response rating, Velvetleaf: 100
[1]; [18]
  Plant response rating, Velvetleaf: 100
[1]; [19]
  Plant response rating, Velvetleaf: 100
[1]; [20]
  Plant response rating, Velvetleaf: 100
[1]; [21]
  Velvetleaf plant response rating: 100
[2]; [14]
  Plant response rating, Ryegrass, Italian: 0
[2]; [15]
  Ryegrass, Italian plant response rating (0 to 100 scale): 15
[2]; [16]
  Plant response rating, Ryegrass, Italian: 40
[2]; [17]
  Plant response rating, Ryegrass, Italian: 60
[2]; [18]
  Plant response rating, Ryegrass, Italian: 0
[2]; [19]
  Plant response rating, Ryegrass, Italian: 0
[2]; [20]
  Plant response rating, Ryegrass, Italian: 0
[2]; [21]
  Ryegrass, Italian plant response rating: 0
[3]; [14]
  Plant response rating, Goosegrass: 75
[3]; [15]
  Goosegrass plant response rating (0 to 100 scale): 80
[3]; [16]
  Plant response rating, Goosegrass: 95
[3]; [17]
  Plant response rating, Goosegrass: 98
[3]; [18]
  Plant response rating, Goosegrass: 95
[3]; [19]
  Plant response rating, Goosegrass: 100
[3]; [20]
  Plant response rating, Goosegrass: 100
[3]; [21]
  Goosegrass plant response rating: 100
[4]; [14]
  Plant response rating, Crabgrass, Large: 95
[4]; [15]
  Crabgrass, Large plant response rating (0 to 100 scale): 98
[4]; [16]
  Plant response rating, Crabgrass, Large: 100
[4]; [17]
  Plant response rating, Crabgrass, Large: 100
[4]; [18]
  Plant response rating, Crabgrass, Large: 98
[4]; [19]
  Plant response rating, Crabgrass, Large: 100
[4]; [20]
  Plant response rating, Crabgrass, Large: 100
[4]; [21]
  Crabgrass, Large plant response rating: 100
[5]; [14]
  Plant response rating, Nutsedge, Yellow: 10
[5]; [15]
  Nutsedge, Yellow plant response rating (0 to 100 scale): 65
[5]; [16]
  Plant response rating, Nutsedge, Yellow: 70
[5]; [17]
  Plant response rating, Nutsedge, Yellow: 75
[5]; [18]
  Plant response rating, Nutsedge, Yellow: 60
[5]; [19]
  Plant response rating, Nutsedge, Yellow: 80
[5]; [20]
  Plant response rating, Nutsedge, Yellow: 90
[5]; [21]
  Nutsedge, Yellow plant response rating: 90
[6]; [14]
  Plant response rating, Bromegrass, Downy: 5
[6]; [15]
  Bromegrass, Downy plant response rating (0 to 100 scale): 20
[6]; [16]
  Plant response rating, Bromegrass, Downy: 35
[6]; [17]
  Plant response rating, Bromegrass, Downy: 50
[6]; [18]
  Plant response rating, Bromegrass, Downy: 0
[6]; [19]
  Plant response rating, Bromegrass, Downy: 0
[6]; [20]
  Plant response rating, Bromegrass, Downy: 0
[6]; [21]
  Bromegrass, Downy plant response rating: 0
[7]; [14]
  Plant response rating, Blackgrass: 0
[7]; [15]
  Blackgrass plant response rating (0 to 100 scale): 0
[7]; [16]
  Plant response rating, Blackgrass: 0
[7]; [17]
  Plant response rating, Blackgrass: 20
[7]; [18]
  Plant response rating, Blackgrass: 0
[7]; [19]
  Plant response rating, Blackgrass: 0
[7]; [20]
  Plant response rating, Blackgrass: 5
[7]; [21]
  Blackgrass plant response rating: 10
[8]; [14]
  Plant response rating, Morningglory: 20
[8]; [15]
  Morningglory plant response rating (0 to 100 scale): 90
[8]; [16]
  Plant response rating, Morningglory: 95
[8]; [17]
  Plant response rating, Morningglory: 95
[8]; [18]
  Plant response rating, Morningglory: 0
[8]; [19]
  Plant response rating, Morningglory: 60
[8]; [20]
  Plant response rating, Morningglory: 75
[8]; [21]
  Morningglory plant response rating: 90
[9]; [14]
  Plant response rating, Wheat: 0
[9]; [15]
  Wheat plant response rating (0 to 100 scale): 0
[9]; [16]
  Plant response rating, Wheat: 10
[9]; [17]
  Plant response rating, Wheat: 25
[9]; [18]
  Plant response rating, Wheat: 0
[9]; [19]
  Plant response rating, Wheat: 0
[9]; [20]
  Plant response rating, Wheat: 0
[9]; [21]
  Wheat plant response rating: 0
[10]; [14]
  Plant response rating, Surinam Grass: 50
[10]; [15]
  Surinam Grass plant response rating (0 to 100 scale): 50
[10]; [16]
  Plant response rating, Surinam Grass: 70
[10]; [17]
  Plant response rating, Surinam Grass: 85
[10]; [18]
  Plant response rating, Surinam Grass: 40
[10]; [19]
  Plant response rating, Surinam Grass: 60
[10]; [20]
  Plant response rating, Surinam Grass: 60
[10]; [21]
  Surinam Grass plant response rating: 75
[11]; [14]
  Plant response rating, Cupgrass, Woolly: 10
[11]; [15]
  Cupgrass, Woolly plant response rating (0 to 100 scale): 55
[11]; [16]
  Plant response rating, Cupgrass, Woolly: 55
[11]; [17]
  Plant response rating, Cupgrass, Woolly: 80
[11]; [18]
  Plant response rating, Cupgrass, Woolly: 5
[11]; [20]
  Plant response rating, Cupgrass, Woolly: 55
[11]; [21]
  Cupgrass, Woolly plant response rating: 75
[12]; [22]
  Plant response rating, Pigweed: 100
[12]; [23]
  Plant response rating, Pigweed: 100
[12]; [24]
  Plant response rating, Pigweed: 100
[12]; [25]
  Plant response rating, Pigweed: 100
[13]; [22]
  Plant response rating, Barnyardgrass: 80
[13]; [23]
  Plant response rating, Barnyardgrass: 90
[13]; [24]
  Plant response rating, Barnyardgrass: 40
[13]; [25]
  Plant response rating, Barnyardgrass: 80

Source: patent US8952024B2, “Herbicidal pyrimidone derivatives” (E I du Pont de Nemours and Company, priority 2009, dated 2015)
